# Legend:
# [1] = target: Calcium/calmodulin-dependent protein kinase type II subunit beta (Homo sapiens) (UniProt Q13554); test: Selectivity interaction (Kinase panel (DSF assay)) EUB0001558a CAMK2B
# [2] = target: 5-hydroxytryptamine receptor 1D (Homo sapiens) (UniProt P28221); test: Selectivity interaction (GPCR panel (PDSP screen)) EUB0001079a HTR1D; settings: at 10 µM
# [3] = target: Serine/threonine-protein kinase PRP4 homolog (Homo sapiens) (UniProt Q13523); test: Selectivity interaction (KinomeScan (DiscoverX)) EUB0000666a PRPF4B; settings: at 10 µM
# Sequence of Serine/threonine-protein kinase PRP4 homolog (Homo sapiens) (Q13523 whole entry): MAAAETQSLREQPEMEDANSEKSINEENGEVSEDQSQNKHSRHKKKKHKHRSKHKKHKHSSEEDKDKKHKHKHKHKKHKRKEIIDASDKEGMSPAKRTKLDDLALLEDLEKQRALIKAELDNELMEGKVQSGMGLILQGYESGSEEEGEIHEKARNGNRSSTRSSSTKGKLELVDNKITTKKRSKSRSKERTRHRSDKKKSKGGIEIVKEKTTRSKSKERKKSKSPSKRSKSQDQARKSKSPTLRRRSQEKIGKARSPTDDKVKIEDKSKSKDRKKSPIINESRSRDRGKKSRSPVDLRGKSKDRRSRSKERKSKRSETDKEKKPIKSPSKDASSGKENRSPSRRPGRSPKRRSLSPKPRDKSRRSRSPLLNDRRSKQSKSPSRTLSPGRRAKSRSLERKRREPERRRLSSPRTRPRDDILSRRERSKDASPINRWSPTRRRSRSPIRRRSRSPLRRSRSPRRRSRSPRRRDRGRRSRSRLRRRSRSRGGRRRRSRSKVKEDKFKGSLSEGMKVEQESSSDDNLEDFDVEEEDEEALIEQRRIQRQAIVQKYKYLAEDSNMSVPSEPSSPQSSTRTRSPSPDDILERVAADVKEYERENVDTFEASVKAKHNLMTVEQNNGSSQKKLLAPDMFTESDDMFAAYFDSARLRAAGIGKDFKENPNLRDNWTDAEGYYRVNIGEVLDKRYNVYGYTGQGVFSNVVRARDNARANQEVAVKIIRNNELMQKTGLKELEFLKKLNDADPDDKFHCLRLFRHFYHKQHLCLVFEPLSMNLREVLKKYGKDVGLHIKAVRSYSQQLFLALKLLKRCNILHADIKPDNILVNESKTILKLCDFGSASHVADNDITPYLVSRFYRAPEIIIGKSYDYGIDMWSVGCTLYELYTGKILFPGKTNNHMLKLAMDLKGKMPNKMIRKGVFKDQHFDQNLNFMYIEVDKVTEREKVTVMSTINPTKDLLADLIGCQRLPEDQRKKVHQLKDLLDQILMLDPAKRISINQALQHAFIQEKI
# [4] = target: T1, Cyclin-G-associated kinase (Homo sapiens) (UniProt O14976); test: Selectivity interaction (KinomeScan (DiscoverX)) EUB0001049a GAK; settings: at 1 µM
# T1 sequence (whole entry): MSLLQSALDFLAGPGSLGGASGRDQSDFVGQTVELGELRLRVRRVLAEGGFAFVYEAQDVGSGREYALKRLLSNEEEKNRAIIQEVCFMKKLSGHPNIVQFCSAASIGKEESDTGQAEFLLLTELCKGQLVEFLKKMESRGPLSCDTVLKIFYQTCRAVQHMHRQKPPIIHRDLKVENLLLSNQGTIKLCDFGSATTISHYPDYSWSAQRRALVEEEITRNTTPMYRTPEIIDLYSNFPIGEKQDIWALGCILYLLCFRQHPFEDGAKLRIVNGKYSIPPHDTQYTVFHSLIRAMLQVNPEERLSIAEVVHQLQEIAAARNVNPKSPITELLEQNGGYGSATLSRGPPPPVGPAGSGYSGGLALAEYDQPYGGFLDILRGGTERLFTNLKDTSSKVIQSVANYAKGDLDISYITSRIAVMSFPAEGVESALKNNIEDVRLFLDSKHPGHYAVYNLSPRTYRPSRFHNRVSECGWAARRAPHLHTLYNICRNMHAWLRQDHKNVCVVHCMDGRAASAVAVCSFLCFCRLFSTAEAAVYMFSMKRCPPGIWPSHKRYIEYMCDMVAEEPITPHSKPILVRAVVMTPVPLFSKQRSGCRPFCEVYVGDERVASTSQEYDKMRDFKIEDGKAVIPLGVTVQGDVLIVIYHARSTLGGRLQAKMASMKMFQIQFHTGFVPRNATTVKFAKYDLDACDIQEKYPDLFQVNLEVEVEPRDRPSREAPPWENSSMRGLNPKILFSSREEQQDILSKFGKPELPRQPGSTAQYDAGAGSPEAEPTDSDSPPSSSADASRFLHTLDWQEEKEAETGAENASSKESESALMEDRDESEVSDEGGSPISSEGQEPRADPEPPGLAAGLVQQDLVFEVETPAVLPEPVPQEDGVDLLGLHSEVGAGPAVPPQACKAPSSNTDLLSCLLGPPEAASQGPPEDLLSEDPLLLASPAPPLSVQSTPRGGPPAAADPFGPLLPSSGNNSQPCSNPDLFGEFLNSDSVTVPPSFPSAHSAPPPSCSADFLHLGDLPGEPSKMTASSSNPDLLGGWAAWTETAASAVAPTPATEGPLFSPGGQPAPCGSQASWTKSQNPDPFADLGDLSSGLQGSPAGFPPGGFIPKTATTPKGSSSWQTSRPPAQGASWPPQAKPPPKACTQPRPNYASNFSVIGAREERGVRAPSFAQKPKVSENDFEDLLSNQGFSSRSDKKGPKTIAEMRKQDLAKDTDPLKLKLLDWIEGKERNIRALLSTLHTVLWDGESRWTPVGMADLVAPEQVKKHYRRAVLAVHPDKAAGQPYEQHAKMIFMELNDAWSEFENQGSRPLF
# [5] = target: T2, Ephrin type-A receptor 6 (Homo sapiens) (UniProt Q9UF33); test: Selectivity interaction (KinomeScan (DiscoverX)) EUB0000618a EPHA6; settings: at 10 µM
# T2 sequence (whole entry): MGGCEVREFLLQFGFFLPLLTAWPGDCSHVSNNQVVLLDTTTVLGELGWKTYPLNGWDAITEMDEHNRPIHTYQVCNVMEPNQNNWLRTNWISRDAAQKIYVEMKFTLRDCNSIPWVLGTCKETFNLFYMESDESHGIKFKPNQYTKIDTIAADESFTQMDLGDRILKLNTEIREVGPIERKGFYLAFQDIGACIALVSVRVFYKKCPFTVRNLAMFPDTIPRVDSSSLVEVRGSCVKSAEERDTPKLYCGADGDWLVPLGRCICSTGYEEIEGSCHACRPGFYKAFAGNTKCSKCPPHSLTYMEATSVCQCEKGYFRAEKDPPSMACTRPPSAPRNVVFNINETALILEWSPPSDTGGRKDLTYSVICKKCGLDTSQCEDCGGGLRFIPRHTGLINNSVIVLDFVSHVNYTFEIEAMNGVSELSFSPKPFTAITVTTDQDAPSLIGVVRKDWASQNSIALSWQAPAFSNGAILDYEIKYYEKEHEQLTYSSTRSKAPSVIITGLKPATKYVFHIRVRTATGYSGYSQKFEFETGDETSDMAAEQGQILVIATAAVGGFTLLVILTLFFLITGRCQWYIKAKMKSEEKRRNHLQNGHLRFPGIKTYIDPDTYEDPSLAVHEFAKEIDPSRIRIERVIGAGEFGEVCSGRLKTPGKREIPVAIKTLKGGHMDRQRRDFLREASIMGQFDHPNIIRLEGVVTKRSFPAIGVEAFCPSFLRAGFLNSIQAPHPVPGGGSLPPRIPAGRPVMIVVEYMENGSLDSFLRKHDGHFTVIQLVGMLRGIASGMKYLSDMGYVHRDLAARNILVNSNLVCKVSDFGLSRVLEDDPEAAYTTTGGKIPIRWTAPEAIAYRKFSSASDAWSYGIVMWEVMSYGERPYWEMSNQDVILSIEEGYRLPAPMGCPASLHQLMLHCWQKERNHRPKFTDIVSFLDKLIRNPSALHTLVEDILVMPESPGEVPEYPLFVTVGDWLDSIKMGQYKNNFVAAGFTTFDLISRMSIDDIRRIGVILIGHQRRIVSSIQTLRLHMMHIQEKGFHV
# [6] = target: T3, Testis-specific serine/threonine-protein kinase 1 (Homo sapiens) (UniProt Q9BXA7); test: Selectivity interaction (KinomeScan (DiscoverX)) EUB0001619a TSSK1B; settings: at 1 µM
# T3 sequence (whole entry): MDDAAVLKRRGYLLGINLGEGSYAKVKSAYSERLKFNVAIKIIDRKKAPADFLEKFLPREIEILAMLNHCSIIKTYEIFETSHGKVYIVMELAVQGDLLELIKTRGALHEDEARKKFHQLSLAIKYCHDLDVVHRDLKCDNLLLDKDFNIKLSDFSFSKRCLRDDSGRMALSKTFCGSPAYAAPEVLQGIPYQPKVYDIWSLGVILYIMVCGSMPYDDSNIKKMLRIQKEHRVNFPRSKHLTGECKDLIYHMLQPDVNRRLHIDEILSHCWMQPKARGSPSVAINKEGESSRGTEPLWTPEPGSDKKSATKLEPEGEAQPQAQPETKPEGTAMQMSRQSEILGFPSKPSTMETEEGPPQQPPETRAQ
# Sequence of Calcium/calmodulin-dependent protein kinase type II subunit beta (Homo sapiens) (Q13554 whole entry): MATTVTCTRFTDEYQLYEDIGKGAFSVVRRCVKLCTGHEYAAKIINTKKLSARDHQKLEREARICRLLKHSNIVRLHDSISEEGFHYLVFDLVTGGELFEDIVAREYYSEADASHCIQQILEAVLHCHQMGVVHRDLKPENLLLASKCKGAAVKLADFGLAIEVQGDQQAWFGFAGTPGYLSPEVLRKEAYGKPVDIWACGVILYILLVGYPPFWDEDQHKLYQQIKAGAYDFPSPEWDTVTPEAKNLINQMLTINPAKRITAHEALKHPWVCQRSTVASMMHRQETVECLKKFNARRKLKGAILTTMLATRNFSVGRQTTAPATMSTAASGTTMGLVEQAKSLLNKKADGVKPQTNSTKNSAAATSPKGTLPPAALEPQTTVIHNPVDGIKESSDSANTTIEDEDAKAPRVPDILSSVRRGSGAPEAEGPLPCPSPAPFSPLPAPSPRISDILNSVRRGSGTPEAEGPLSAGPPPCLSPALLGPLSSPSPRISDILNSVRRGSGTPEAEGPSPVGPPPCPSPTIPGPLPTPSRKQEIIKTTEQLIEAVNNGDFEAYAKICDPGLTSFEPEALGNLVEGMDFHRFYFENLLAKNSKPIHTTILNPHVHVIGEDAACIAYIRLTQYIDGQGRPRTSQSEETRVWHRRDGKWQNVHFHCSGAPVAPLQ
# Sequence of 5-hydroxytryptamine receptor 1D (Homo sapiens) (P28221 whole entry): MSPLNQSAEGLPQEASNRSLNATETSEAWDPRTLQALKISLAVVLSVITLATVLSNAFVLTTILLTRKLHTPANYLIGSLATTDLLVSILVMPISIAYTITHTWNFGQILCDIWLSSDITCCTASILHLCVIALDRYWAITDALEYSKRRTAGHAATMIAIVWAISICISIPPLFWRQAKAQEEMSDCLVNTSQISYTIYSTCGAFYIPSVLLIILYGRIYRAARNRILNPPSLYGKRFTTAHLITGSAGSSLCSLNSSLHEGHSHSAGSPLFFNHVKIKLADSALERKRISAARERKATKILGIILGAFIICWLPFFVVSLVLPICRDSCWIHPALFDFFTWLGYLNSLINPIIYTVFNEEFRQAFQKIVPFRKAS
smiles,measurement,setting,value
CC(C)(O)[C@H](F)CN1Cc2cc(NC(=O)c3cnn4cccnc34)c(N3CCOCC3)cc2C1=O,dTM,[1],0.1 K
Nc1cnc(N2CCc3cc(S(=O)(=O)Nc4c(F)cc(Cl)cc4F)cc(N4CCCC4=O)c32)nc1 [TP-020n],% of inhibition,[2],9.24%
O=C(NOC[C@H](O)CO)c1ccc(F)c(F)c1Nc1ccc(I)cc1F,% of control,[3],77%
COc1cc(Nc2nc(C)cc(-c3cnn4nc(OC)ccc34)n2)cc(C(F)(F)F)c1,% of control,[4],87%
O[C@H]1CC[C@H](Nc2ncc3nc(Nc4c(F)cc(F)cc4F)n([C@H]4CCOC4)c3n2)CC1,% of control,[5],79%
N#Cc1cccc(-c2c[nH]c3ncnc(N4CCOCC4)c23)c1,% of control,[6],75%
